According to patent US6908919B2, “Substituted polycyclic aryl and heteroaryl pyrazinones useful for selective inhibition of the coagulation cascade” (Pharmacia Corporation, priority 1999, dated 2005):
Read-outs that look alike come from different tables or passages of the source. Each block holds one compound with its values, some of them ahead of it.

What was measured:
Human factor Xa = Human factor Xa (Homo sapiens, UniProt P00742); assay: Xa Assay; assay type: biochemical; parameters: purchased Enzyme Research Laboratories, South Bend Ind; conditions: for inhibition at 100 µM: at 100 μM inhibitor
Human thrombin = Human thrombin (Homo sapiens, UniProt P00734); assay: biochemical
[1] = target: T1, recombinant soluble tissue factor and recombinant human factor VIIa (TF-VIIa) (Homo sapiens, UniProt P08709); assay: TF-VIIa Assay; assay type: biochemical; conditions: for IC50: read-out: IC50 TF-VIIa
T1 construct: conversion of coagulation factor VII to VIIa by Xa; purchased American Diagnostica, Greenwich Conn; host or cells: VIIa purchased; soluble TF made in house in E. coli
T1 sequence (P08709 61-212 limits assumed): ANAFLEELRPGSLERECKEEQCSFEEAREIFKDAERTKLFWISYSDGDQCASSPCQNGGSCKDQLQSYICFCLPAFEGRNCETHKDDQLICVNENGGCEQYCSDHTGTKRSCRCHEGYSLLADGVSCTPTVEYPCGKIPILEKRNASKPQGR
T1 sequence (P08709 213-466 limits assumed): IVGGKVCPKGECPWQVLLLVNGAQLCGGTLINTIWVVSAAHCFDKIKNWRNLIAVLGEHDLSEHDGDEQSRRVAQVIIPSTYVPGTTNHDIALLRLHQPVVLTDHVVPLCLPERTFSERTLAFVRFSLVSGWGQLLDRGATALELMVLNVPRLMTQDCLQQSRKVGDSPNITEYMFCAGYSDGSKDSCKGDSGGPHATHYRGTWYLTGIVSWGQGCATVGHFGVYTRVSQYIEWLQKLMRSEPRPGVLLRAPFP
T1 sequence (P13726 33-251 partner limits assumed): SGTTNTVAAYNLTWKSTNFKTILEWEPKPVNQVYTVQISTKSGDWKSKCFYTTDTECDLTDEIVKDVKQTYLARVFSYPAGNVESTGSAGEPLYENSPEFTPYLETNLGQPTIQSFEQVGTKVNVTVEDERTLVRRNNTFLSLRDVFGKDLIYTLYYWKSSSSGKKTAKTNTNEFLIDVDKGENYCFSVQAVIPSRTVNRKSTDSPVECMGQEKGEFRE

Human factor Xa, sequence (P00742 41-179 limits assumed): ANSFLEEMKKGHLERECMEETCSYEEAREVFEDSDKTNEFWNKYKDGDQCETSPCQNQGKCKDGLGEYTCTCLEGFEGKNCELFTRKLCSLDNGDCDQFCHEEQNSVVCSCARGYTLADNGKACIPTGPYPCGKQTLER
Human factor Xa, sequence (P00742 235-488 limits assumed): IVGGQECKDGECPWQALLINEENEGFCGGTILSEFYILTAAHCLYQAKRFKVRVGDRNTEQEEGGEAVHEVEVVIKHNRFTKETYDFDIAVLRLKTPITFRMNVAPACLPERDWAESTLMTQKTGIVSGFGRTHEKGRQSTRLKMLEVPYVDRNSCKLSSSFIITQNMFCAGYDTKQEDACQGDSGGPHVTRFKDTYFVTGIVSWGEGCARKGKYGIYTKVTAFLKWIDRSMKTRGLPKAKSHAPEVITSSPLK

Compound: CC(C)Nc1nc(Cl)c(-c2cc(N)cc(C(=O)NCc3cc(C(F)(F)F)cc(C(F)(F)F)c3)c2)n(CC(=O)NCc2ccc(C(=N)N)cc2)c1=O [Example 128-6]
inhibition at 100 µM (Human factor Xa): 29%
inhibition at 100 µM (Human thrombin; read-out: % Inhibition Thrombin II at 100 μM): 40%
IC50 [1]: 0.332 µM

Compound: CC(C)Nc1nc(Cl)c(-c2cc(N)cc(C(=O)NC3CCCC3)c2)n(CC(=O)NCc2ccc(C(=N)N)cc2)c1=O [Example 128-16]
inhibition at 100 µM (Human factor Xa): 36%
IC50 (Human thrombin): 10.2 µM
IC50 [1]: 0.007 µM

Compound: N=C(N)c1ccc(COCCn2c(-c3cccc(N)c3)c(Cl)nc(NC3CCC3)c2=O)cc1 [Example 140]
inhibition at 100 µM (Human factor Xa): 24%
IC50 (Human thrombin): 47.4 µM
IC50 [1]: 13.3 µM

Compound: CC(C)Nc1nc(Cl)c(-c2cc(N)cc(C(=O)NC3CCC3)c2)n(CC(=O)NCc2ccc(C(=N)N)cc2)c1=O [Example 128-15]
inhibition at 100 µM (Human factor Xa): 32%
IC50 (Human thrombin): 13.3 µM
IC50 [1]: 0.0066 µM

Compound: N=C(N)c1ccc(CNC(=O)Cn2c(-c3ccc(-c4ccccc4)cc3)c(Cl)nc(NCCc3ccc(Cl)cc3)c2=O)cc1 [Example 22]
% Inhibition Factor Xa (30 µM) (Human factor Xa): 13% @ 30
% Inhibition TF-VIIa (30 µM) [1]: 0% @ 30

Compound: N=C(N)c1ccc(CNC(=O)Cn2c(-c3ccc(-c4ccccc4)cc3)c(Cl)nc(NCCc3cccc(Cl)c3)c2=O)cc1 [1471-70]
% Inhibition Factor Xa (30 µM) (Human factor Xa; at 30 µM inhibitor): 12%
% Inhibition TF-VIIa (30 µM) ([1]; at 30 µM inhibitor): 10%

Compound: O=C(Cn1c(-c2ccc(-c3ccccc3)cc2)c(Cl)nc(NCCc2ccccc2)c1=O)NCCc1ccncc1 [Example E-0050]
% Inhibition Factor Xa (100 µM) (Human factor Xa): 0%
% Inhibition TF-VIIa (100 µM) [1]: 0%

Compound: COc1ccc(-c2c(Cl)nc(NCc3ccncc3)c(=O)n2CC(=O)NCc2ccc(C(=N)N)cc2)cc1 [1471-35]
% Inhibition Factor Xa (30 µM) (Human factor Xa; at 30 µM inhibitor): 22%
% Inhibition TF-VIIa (30 µM) ([1]; at 30 µM inhibitor): 37%

Compound: Nc1cccc(-c2c(Cl)nc(NC3CCC3)c(=O)n2CC(=O)NCc2ccccc2)c1 [Example 99]
% Inhibition Factor Xa (30 µM) (Human factor Xa; at 30 µM inhibitor): 8% @ 30
% Inhibition TF-VIIa (30 µM) ([1]; at 30 µM inhibitor): 6% @ 30

Compound: COC(=O)c1cc(N)cc(-c2c(Cl)nc(NC(C)C)c(=O)n2CC(=O)NCc2ccc(C(=N)N)cc2)c1 [Example 125]
inhibition at 100 µM (Human factor Xa): 36%
IC50 [1]: 0.038 µM

Compound: N=C(N)c1ccc(CNC(=O)Cn2c(-c3ccccc3)c(Cl)nc(NCC(F)(F)F)c2=O)cc1 [1507-41]
% Inhibition Factor Xa (30 µM) (Human factor Xa; at 30 µM inhibitor): 17%
% Inhibition TF-VIIa (30 µM) ([1]; at 30 µM inhibitor): 48%

Compound: N=C(N)c1ccc(CNC(=O)Cn2c(-c3ccccc3)c(Cl)nc(NCc3cc(F)cc(C(F)(F)F)c3)c2=O)cc1 [1512-29]
% Inhibition Factor Xa (30 µM) (Human factor Xa; at 30 µM inhibitor): 4%
% Inhibition TF-VIIa (30 µM) ([1]; at 30 µM inhibitor): 47%

Other lines, results leading:

IC50 (Human thrombin): 4.6 µM
IC50 [1]: 0.2 µM
Compound: N=C(N)c1ccc(CCC(=O)Cn2c(-c3cccc(N)c3)c(Cl)nc(NC3CCC3)c2=O)cc1 [Example 142]

% Inhibition Factor Xa (30 µM) (Human factor Xa; at 30 µM inhibitor): 5%
IC50 (Human thrombin): > 30 µM
Compound: Nc1cccc(-c2c(Cl)nc(NC3CCC3)c(=O)n2CC(=O)NCc2ccc3[nH]cnc3c2)c1 [Example 146]

% Inhibition Factor Xa (100 µM) (Human factor Xa; inhibitor at 100 µM): 6%
% Inhibition TF-VIIa (100 µM) ([1]; inhibitor at 100 µM): 0%
Compound: COc1ccc(-c2c(Cl)nc(NCCc3ccccc3)c(=O)n2CC(=O)NCCc2ccncc2)cc1 [Example E-0034]

% Inhibition Factor Xa (100 µM) (Human factor Xa; inhibitor at 100 µM): 2%
% Inhibition TF-VIIa (100 µM) ([1]; inhibitor at 100 µM): 0%
Compound: O=C(Cn1c(-c2cccc(Cl)c2)c(Cl)nc(NCc2ccccc2)c1=O)NCCc1ccncc1 [Example E-0073]

% Inhibition Factor Xa (100 µM) (Human factor Xa; inhibitor at 100 µM): 0%
% Inhibition TF-VIIa (100 µM) ([1]; inhibitor at 100 µM): 0%
Compound: O=C(Cn1c(-c2ccc(Cl)cc2)c(Cl)nc(NCc2ccncc2)c1=O)NCCc1ccncc1 [Example E-0024]

% Inhibition Factor Xa (100 µM) (Human factor Xa; inhibitor at 100 µM): 0%
% Inhibition TF-VIIa (100 µM) ([1]; inhibitor at 100 µM): 0%
Compound: O=C(Cn1c(-c2ccccc2)c(Cl)nc(NCCc2ccccc2)c1=O)NCCc1ccncc1 [Example E-0010]

% Inhibition Factor Xa (100 µM) (Human factor Xa; inhibitor at 100 µM): 0%
% Inhibition TF-VIIa (100 µM) ([1]; inhibitor at 100 µM): 0%
Compound: O=C(Cn1c(CCc2ccccc2)c(Cl)nc(NCCc2cccc(Cl)c2)c1=O)NCCc1ccncc1 [Example E-0067]

% Inhibition Factor Xa (30 µM) (Human factor Xa; at 30 µM): 0%
% Inhibition TF-VIIa (30 µM) ([1]; at 30 µM): 22%
Compound: N=C(N)c1ccc(CNC(=O)C(Cc2ccccc2)n2c(-c3ccccc3)c(Cl)nc(NCCc3cccc(Cl)c3)c2=O)cc1 (stereo not drawn) [Example 1517-20]

% Inhibition Factor Xa (100 µM) (Human factor Xa; inhibitor at 100 µM): 1%
% Inhibition TF-VIIa (100 µM) ([1]; inhibitor at 100 µM): 0%
Compound: Cc1c(Cl)nc(NCc2ccccc2)c(=O)n1CC(=O)NCCc1ccncc1 [Example E-0001]

% Inhibition Factor Xa (30 µM) (Human factor Xa; at 30 µM): 0%
% Inhibition TF-VIIa (30 µM) ([1]; at 30 µM): 33%
Compound: CCCCNc1nc(Cl)c(-c2ccccc2)n(CC(=O)NCc2ccc(C(=N)N)cc2)c1=O [Example 1517-35]

% Inhibition Factor Xa (100 µM) (Human factor Xa; inhibitor at 100 µM): 0%
% Inhibition TF-VIIa (100 µM) ([1]; inhibitor at 100 µM): 0%
Compound: O=C(Cn1c(Cc2ccccc2)c(Cl)nc(NCCc2ccncc2)c1=O)NCCc1ccncc1 [Example E-0062]

% Inhibition Factor Xa (100 µM) (Human factor Xa; inhibitor at 100 µM): 0%
% Inhibition TF-VIIa (100 µM) ([1]; inhibitor at 100 µM): 0%
Compound: O=C(Cn1c(Cc2ccccc2)c(Cl)nc(NCCc2cccnc2)c1=O)NCCc1ccncc1 [Example E-0061]

% Inhibition Factor Xa (100 µM) (Human factor Xa; inhibitor at 100 µM): 0%
% Inhibition TF-VIIa (100 µM) ([1]; inhibitor at 100 µM): 0%
Compound: COc1ccc(-c2c(Cl)nc(NCCc3ccncc3)c(=O)n2CC(=O)NCCc2ccncc2)cc1 [Example E-0038]
